Results: US8129355B2, “Ketone ligands for modulating the expression of exogenous genes via an ecdysone receptor complex” (priority 2002, dated 2012)
Where two headings read alike, the source gives them in different places.

Molecular target: T1, Bombyx mori EcR (VP16 fusion, switch construct CVBE) with 6XEcRE LacZ reporter (Bombyx mori, UniProt P49881)
T1 construct: expressed in transfected cells; host or cells: Human 293 kidney (HEK-293) cells, retrovirally infected, clone Z3
T1 sequence (P49881 86-606 limits assumed): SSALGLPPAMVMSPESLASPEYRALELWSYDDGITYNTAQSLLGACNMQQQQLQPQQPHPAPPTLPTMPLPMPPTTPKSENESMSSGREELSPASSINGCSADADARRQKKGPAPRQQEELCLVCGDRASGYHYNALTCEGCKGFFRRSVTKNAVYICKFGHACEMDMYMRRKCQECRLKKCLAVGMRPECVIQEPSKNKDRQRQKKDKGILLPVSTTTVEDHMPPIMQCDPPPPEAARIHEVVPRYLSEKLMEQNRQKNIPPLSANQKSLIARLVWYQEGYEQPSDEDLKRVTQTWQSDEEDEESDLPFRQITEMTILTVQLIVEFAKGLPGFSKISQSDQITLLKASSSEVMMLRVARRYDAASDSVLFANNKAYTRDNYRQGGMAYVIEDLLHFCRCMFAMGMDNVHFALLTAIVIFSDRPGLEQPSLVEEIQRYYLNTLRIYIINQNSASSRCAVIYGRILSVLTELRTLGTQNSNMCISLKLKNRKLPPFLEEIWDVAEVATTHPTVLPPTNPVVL
T1 sequence (P19793 1-462 partner): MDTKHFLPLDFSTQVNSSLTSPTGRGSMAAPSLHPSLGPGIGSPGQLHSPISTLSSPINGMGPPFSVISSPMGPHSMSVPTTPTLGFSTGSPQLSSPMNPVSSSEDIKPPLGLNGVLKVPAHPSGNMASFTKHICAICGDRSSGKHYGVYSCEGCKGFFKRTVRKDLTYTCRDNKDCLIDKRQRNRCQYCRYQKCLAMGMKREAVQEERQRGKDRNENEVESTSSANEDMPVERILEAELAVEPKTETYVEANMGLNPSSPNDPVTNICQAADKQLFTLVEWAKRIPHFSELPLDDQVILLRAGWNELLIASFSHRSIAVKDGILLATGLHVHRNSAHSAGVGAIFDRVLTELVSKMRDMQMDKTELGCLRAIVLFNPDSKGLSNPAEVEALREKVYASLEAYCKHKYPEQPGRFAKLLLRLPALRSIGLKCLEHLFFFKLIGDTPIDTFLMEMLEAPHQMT
Experiment: Z3 assay: β-galactosidase (LacZ) reporter gene fold induction in stably transformed human 293 kidney cells (clone Z3)
Type: cell-based
In short: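 β-Galactosidase read 48 h after dosing by bioluminescent assay; ligand added at 33 μM with DMSO held at 0.03%. The cells are stable 293 clone Z3, expressing a CMV-driven VP16 fusion of Bombyx mori EcR residues 26-546 plus six EcRE copies upstream of lacZ.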

[1] = average; dose response, three-parameter logistic model; read-out: Z3 LC50
[2] = maximum fold induction at any concentration relative to that of GS-E ligand
[3] = single dose 33 μM; ligand treated / DMSO treated cells
[4] = single dose 33 μM; ligand treated / DMSO treated cells; read-out: Fold Induction Average, Z3 Assay (33 μM)
[5] = read-out: Fold Induction Average, Z3 Assay (33 μM)
[6] = read-out: Z3 LC50; average; dose response, three-parameter logistic model

## O=C(NC1(C(=O)c2ccccc2)CCCC1)c1ccccc1 [Example 139]
[1]
  CC50: > 33 µM
[2]
  Z3 Rel Max FI: 0.00

## COc1cccc(C(=O)NC(C)(C)C(=O)c2ccccc2)c1C [Example 76]
[1]
  CC50: > 33 µM
[2]
  Z3 Rel Max FI: 0.00
[3]
  Fold Induction Average, Z3 Assay (33 μM): 1

## COc1cccc(C(=O)NC(C)(C)C(=O)c2cc(C)cc(C)c2)c1C [Example 75]
[1]
  CC50: ~10 µM
[2]
  Z3 Rel Max FI: 0.17
[3]
  Fold Induction Average, Z3 Assay (33 μM): 312

## CCOC(=O)C(=O)N1CCCC(NC(=O)c2cccc(OC)c2C)(C(=O)c2cc(C)cc(C)c2)C1 (racemic) [Example 154]
[3]
  Fold Induction Average, Z3 Assay (33 μM): 7

## COc1cccc(C(=O)NC(C)(C(=O)c2cccc(C)c2)C(C)C)c1C (centres unmarked) [Example 31]
[1]
  CC50: 8.61 µM
[2]
  Z3 Rel Max FI: 0.47
[4]
  fold induction at 33 µM: 312

## COc1cccc(C(=O)NC2(C(=O)c3cc(C)cc(C)c3)CCCCC2)c1C [Example 11]
[1]
  CC50: 1.41 µM
[2]
  Z3 Rel Max FI: 0.99
[4]
  fold induction at 33 µM: 722

## COc1cccc(C(=O)C(C)(C)NC(=O)c2ccccc2OC)c1 [Example 117]
[3]
  Fold Induction Average, Z3 Assay (33 μM): 1

## COc1cccc(C(=O)NC(C)(CC(C)C)C(=O)c2cccc(C)c2)c1C (centres unmarked) [Example 52]
[2]
  Z3 Rel Max FI: 0.24
[5]
  fold induction at 33 µM: 239
[6]
  CC50: 6.09 µM

## COC(=O)CN1CCCC(NC(=O)c2cccc(OC)c2C)(C(=O)c2cc(C)cc(C)c2)C1 (racemic) [Example 156]
[1]
  CC50: ~20 µM
[2]
  Z3 Rel Max FI: 0.03
[3]
  Fold Induction Average, Z3 Assay (33 μM): 78

## COc1ccccc1C(=O)C1(NC(=O)c2cccc(OC)c2C)CCCCC1 [Example 45]
[2]
  Z3 Rel Max FI: 0.84
[5]
  fold induction at 33 µM: 665
[6]
  CC50: 0.98 µM

## COc1cccc(C(=O)NC2(C(=O)c3ccc(C)cc3)CCCCC2)c1C [Example 15]
[2]
  Z3 Rel Max FI: 0.70
[5]
  fold induction at 33 µM: 921
[6]
  CC50: 3.01 µM

## CCNC(=O)N1CCC(NC(=O)c2cccc(OC)c2C)(C(=O)c2cc(C)cc(C)c2)CC1 [Example 157]
[3]
  Fold Induction Average, Z3 Assay (33 μM): 2

## COc1cccc(C(=O)NC2(C(=O)c3ccccc3)CCCC2)c1 [Example 141]
[1]
  CC50: > 33 µM
[2]
  Z3 Rel Max FI: 0.00

## COc1cccc(C(=O)NC(C)(C(=O)c2ccccc2)C(C)C)c1C (centres unmarked) [Example 34]
[2]
  Z3 Rel Max FI: 0.04
[5]
  fold induction at 33 µM: 66
[6]
  CC50: > 33 µM

## CCc1c(OC)cccc1C(=O)NC1(C(=O)c2cc(C)cc(C)c2)CCCCC1 [Example 143]
[1]
  CC50: 1.81 µM
[2]
  Z3 Rel Max FI: 0.85

## COc1cccc(C(=O)NC(C)(CC(C)C)C(=O)c2cc(C)cc(C)c2)c1C (centres unmarked) [Example 55]
[2]
  Z3 Rel Max FI: 0.72
[5]
  fold induction at 33 µM: 309
[6]
  CC50: 3.4 µM

## COc1cccc(C(=O)NC2(C(=O)c3cc(C)cc(C)c3)CCOCC2)c1C [Example 27]
[2]
  Z3 Rel Max FI: 0.81
[5]
  fold induction at 33 µM: 562
[6]
  CC50: 10 µM

## COc1ccccc1C(=O)C(C)(NC(=O)c1cccc(OC)c1C)C(C)C (centres unmarked) [Example 30]
[2]
  Z3 Rel Max FI: 0.20
[5]
  fold induction at 33 µM: 485
[6]
  CC50: ~15 µM

## COc1ccc(C(=O)C2(NC(=O)c3cccc(OC)c3C)CCCCC2)c(OC)n1 [Example 64]
[2]
  Z3 Rel Max FI: 0.77
[5]
  fold induction at 33 µM: 1160
[6]
  CC50: 2.62 µM

## COc1cccc(C(=O)NC(C)(C(=O)c2ccc(C)cc2)C(C)C)c1C (centres unmarked) [Example 33]
[1]
  CC50: ~20 µM
[2]
  Z3 Rel Max FI: 0.05
[4]
  fold induction at 33 µM: 31

## COc1cccc(C(=O)NC2(C(=O)c3cc(F)c(F)c(OC)c3)CCCC2)c1C [Example 67]
[2]
  Z3 Rel Max FI: 0.54
[5]
  fold induction at 33 µM: 666
[6]
  CC50: 4.17 µM

## COc1cccc(C(=O)NC2(C(=O)c3cc(C)cc(C)c3)CC2)c1C [Example 13]
[2]
  Z3 Rel Max FI: 0.22
[5]
  fold induction at 33 µM: 293
[6]
  CC50: 20.4 µM

## COc1cccc(C(=O)NC2(C(=O)c3ccccc3)CCCCC2)c1C [Example 69]
[2]
  Z3 Rel Max FI: 0.56
[5]
  fold induction at 33 µM: 1030
[6]
  CC50: 7.52 µM

## COc1ccccc1C(=O)C(C)(C)NC(=O)c1cccc(OC)c1C [Example 74]
[3]
  Fold Induction Average, Z3 Assay (33 μM): 18

## COc1cccc(C(=O)NC2(C(=O)c3cccc(C)c3)CCCCC2)c1C [Example 7]
[2]
  Z3 Rel Max FI: 0.78
[5]
  fold induction at 33 µM: 811
[6]
  CC50: 3.51 µM

## CCC(CC)(NC(=O)c1cccc(OC)c1C)C(=O)c1ccc(C)cc1 [Example 77]
[1]
  CC50: 32.2 µM
[2]
  Z3 Rel Max FI: 0.04

## COc1cccc(C(=O)NC2(C(=O)c3cc(C)cc(C)c3)CCCC2)c1C [Example 10]
[1]
  CC50: 1.87 µM
[2]
  Z3 Rel Max FI: 0.85
[4]
  fold induction at 33 µM: 464

## COc1cccc(C(=O)NC2(C(=O)c3ccc(F)c(C)c3)CCCC2)c1C [Example 17]
[2]
  Z3 Rel Max FI: 0.43
[5]
  fold induction at 33 µM: 393
[6]
  CC50: 3.47 µM

## COc1cc(C(=O)C2(NC(=O)c3cccc(OC)c3C)CCCC2)cc(OC)c1C [Example 65]
[1]
  CC50: 8.84 µM
[2]
  Z3 Rel Max FI: 0.06
[3]
  Fold Induction Average, Z3 Assay (33 μM): 151

## COc1cccc(C(=O)NC(C)(C(=O)c2ccccc2C)C(C)C)c1C (centres unmarked) [Example 63]
[1]
  CC50: 17.9 µM
[2]
  Z3 Rel Max FI: 0.26
[4]
  fold induction at 33 µM: 453

## COc1ccc(C(=O)C2(NC(=O)c3cccc(OC)c3C)CCCCC2)cc1 [Example 46]
[2]
  Z3 Rel Max FI: 0.03
[5]
  fold induction at 33 µM: 15
[6]
  CC50: > 33 µM

## CCCCC(=O)C1(NC(=O)c2cccc(OC)c2C)CCCCC1 [Example 120]
[2]
  Z3 Rel Max FI: 0.36
[5]
  fold induction at 33 µM: 791
[6]
  CC50: 6.33 µM

## CCc1c(OC)cccc1C(=O)NC1(C(=O)c2ccccc2)CCCC1 [Example 21]
[2]
  Z3 Rel Max FI: 0.33
[5]
  fold induction at 33 µM: 305
[6]
  CC50: ~15 µM

## COc1cccc(C(=O)NC2(C(=O)c3cccc(C)c3)CCSCC2)c1C [Example 26]
[2]
  Z3 Rel Max FI: 0.60
[5]
  fold induction at 33 µM: 751
[6]
  CC50: ~15 µM

## COc1cccc(C(=O)NC2(C(=O)c3cc(C)cc(C)c3)CCSCC2)c1C [Example 28]
[1]
  CC50: 1.6 µM
[2]
  Z3 Rel Max FI: 0.98
[4]
  fold induction at 33 µM: 1220

## COc1cccc(C(=O)NC2(C(=O)c3cc(C)cc(C)c3)CCC2)c1C [Example 14]
[1]
  CC50: 8.52 µM
[2]
  Z3 Rel Max FI: 0.69
[4]
  fold induction at 33 µM: 945

## COc1cccc(C(=O)C(C)(CC(C)C)NC(=O)c2cccc(OC)c2C)c1 (centres unmarked) [Example 53]
[2]
  Z3 Rel Max FI: 0.11
[5]
  fold induction at 33 µM: 112
[6]
  CC50: 23.7 µM

## CCC(CC)(NC(=O)c1cccc(OC)c1C)C(=O)c1ccccc1 [Example 78]
[1]
  CC50: > 33 µM
[2]
  Z3 Rel Max FI: 0.06

## COc1cccc(C(=O)NC2(C(=O)c3cc(C)cc(C)c3)CCC3(CC2)OCCO3)c1C [Example 29]
[2]
  Z3 Rel Max FI: 0.06
[5]
  fold induction at 33 µM: 116
[6]
  CC50: ~15 µM

## COc1cc(C(=O)C2(NC(=O)c3cccc(OC)c3C)CCCCC2)cc(OC)c1C [Example 66]
[2]
  Z3 Rel Max FI: 0.17
[5]
  fold induction at 33 µM: 341
[6]
  CC50: 3.33 µM

## CCC(CC)(NC(=O)c1cccc(OC)c1C)C(=O)c1cccc(OC)c1 [Example 49]
[2]
  Z3 Rel Max FI: 0.01
[5]
  fold induction at 33 µM: 182
[6]
  CC50: > 33 µM

## COc1cccc(C(=O)NC2(C(=O)c3cc(C)cc(C)c3)CCS(=O)(=O)CC2)c1C [Example 62]
[2]
  Z3 Rel Max FI: 0.10
[5]
  fold induction at 33 µM: 347
[6]
  CC50: ~15 µM

## COc1cccc(C(=O)NC2(C(=O)c3ccc(F)cc3)CCCC2)c1C [Example 42]
[2]
  Z3 Rel Max FI: 0.14
[5]
  fold induction at 33 µM: 153
[6]
  CC50: ~15 µM

## COc1cccc(C(=O)NC2(C(=O)c3cccc(C)c3)CCOCC2)c1C [Example 25]
[2]
  Z3 Rel Max FI: 0.07
[5]
  fold induction at 33 µM: 19
[6]
  CC50: ~20 µM

## CCC(CC)(NC(=O)c1cccc(OC)c1C)C(=O)c1cc(C)cc(C)c1 [Example 51]
[1]
  CC50: 4.53 µM
[2]
  Z3 Rel Max FI: 0.61
[4]
  fold induction at 33 µM: 817

## COc1cccc(C(=O)C2(NC(=O)c3cccc(OC)c3C)CCCCC2)c1 [Example 4]
[2]
  Z3 Rel Max FI: 0.54
[5]
  fold induction at 33 µM: 233
[6]
  CC50: 1.19 µM

## CCC(CC)(NC(=O)c1cccc(OC)c1C)C(=O)c1ccccc1OC [Example 37]
[2]
  Z3 Rel Max FI: 0.29
[5]
  fold induction at 33 µM: 327
[6]
  CC50: 6.19 µM
